assay: gradient 5% acetonitrile 3 min, to 50% in 2 min, to 85% in 15 min, held 3 min, 100 µL/min; conditions: column: Zorbax Extend-C18 2.1 x 50 mm; eluents: water / acetonitrile, 0.1% formic acid
Summary of the method: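 Values are retention times taken from adduct peaks that software picked and an analyst inspected. The pure standards were run as mixtures of ~100 molecules on HPLC linked to a quadrupole time-of-flight mass spectrometer, in positive and negative ionization mode. A Zorbax Extend-C18 column (2.1 × 50 mm, 1.8 μm) was used at 100 μL/min with water and acetonitrile, each including 0.1% formic acid.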

| RP-LC retention time [s] | Compound |
| --- | --- |
| 659 | CCc1ccc2oc(C(=O)NCC(c3ccccc3OC)N(C)C)cc(=O)c2c1 (configuration not stated) |
| 855 | CCN1C(=O)c2cccnc2Sc2cc(NC(=O)Cc3ccc(C)cc3)ccc21 |
| 582 | COc1cccc(CN2CCC3(CC2)CC(O)CCO3)c1OC (configuration not stated) |
| 703 | CCC1CCCCN1C(=O)c1cnc2nc(C)ccc2c1Nc1ccc(F)cc1C (configuration not stated) |
| 754 | O=C(Cc1c[nH]c2ccccc12)Nc1cc(-c2ccccn2)no1 |
| 1130 | COc1ccccc1-c1nnc(-c2cc(S(=O)(=O)N3CCCCCC3)ccc2Cl)o1 |
| 623 | COc1ccc(-c2noc(Cn3ccn(-c4ccccc4OC)c(=O)c3=O)n2)cc1 |
| 715 | CCCNC(=O)C1CCCN(c2nc3ncn(CC(=O)Nc4ccc(C)c(C)c4)c(=O)c3s2)C1 (configuration not stated) |
| 730 | CCCn1cc(C(=O)NCCN(C)C)c(S(=O)(=O)N2CCN(c3ccc(Cl)cc3)CC2)n1 |
| 574 | O=C(C1CCC1)N1CCCC(CN2CCOCC2)CC1 (configuration not stated) |
| 609 | Cn1c(C(=O)NCc2cccc(F)c2)cc2ccncc21 |
| 880 | Cc1cc(-c2nc3ccccc3s2)ccc1N |
| 1300 | Cc1cc(C)c(NC(=O)Cn2nc(N3CCC(C)CC3)c3ccccc3c2=O)c(C)c1 |
| 1090 | O=C1COc2ccccc2N1Cc1nc(-c2ccc(F)c(Cl)c2)no1 |
| 594 | CCCN1CCN(CCCNC(=O)c2noc3c2CCCCC3)CC1 |
| 580 | CN(C)CCC(c1ccccc1)c1ccccn1 (configuration not stated) |
| 599 | CC(C(=O)NCCCN1CCOCC1)n1c2ccccc2c2cnn(C)c(=O)c21 (configuration not stated) |
| 750 | CC(C)CC(=O)NCCn1c(=O)n(Cc2ccc(F)cc2)c2cccnc21 |
| 1280 | O=C(COc1cc(O)c2c(=O)c3ccccc3oc2c1)c1ccc(Br)cc1 |

More lines, now with the values behind:

| Compound | RP-LC retention time [s] |
| --- | --- |
| CCOC(=O)CSc1nnc(CNC(=O)c2cc(OC)c(OC)c(OC)c2)n1C | 601 |
| CCCCN(C)C(=O)C1CCN(S(=O)(=O)c2ccc3c(c2)sc(=O)n3C)CC1 | 822 |
| Cc1ccc(S(=O)(=O)n2nc(-c3ccc(C)c(C)c3)nc2N)cc1 | 1000 |
| Cn1nc(-c2nc(C3CC3)no2)c2c1CCN(C(=O)c1ccc(OC(F)(F)F)cc1)C2 | 937 |
| COc1ccc(-c2c(C)noc2NC(C)=O)cc1S(=O)(=O)N1CC=C(c2ccccc2)CC1 | 879 |
| CCn1nccc1-c1cccc(-c2noc(C3CCN(S(=O)(=O)c4ccc(Cl)cc4)CC3)n2)c1 | 932 |
| CC1(C(=O)NCc2ccc(F)cc2)CN(S(C)(=O)=O)CC(=O)N1Cc1ccc(F)cc1 (configuration not stated) | 841 |
| CCc1nc2sc(C(C)C)nn2c1S(=O)(=O)N1CCSCC1 | 962 |
| COc1cccc(N2CCN(C(=O)C3CCN(c4nnc(-c5ccccc5)o4)CC3)CC2)c1 | 807 |
| O=C(NCCN1CCOCC1)C(=O)Nc1ccccc1Cl | 549 |
| Cc1ccccc1CNC(=O)CN1C(=O)CCCc2cc(S(=O)(=O)N3CCC(C)CC3)ccc21 | 975 |
| Cc1ccc(-c2cc3c4nnc(CCC(=O)NCc5ccccc5C(F)(F)F)n4ccn3n2)cc1C | 952 |
| O=C(NCc1nc(-c2ccc(-c3csc(-c4ccccc4)n3)cc2)no1)c1ccco1 | 1090 |
| CCc1nccn1Cc1nc(-c2ccc(C)cc2)no1 | 646 |
| CC(=O)N1CCCCCCNC(=O)[C@@H]2CCC[C@@H]21 | 624 |
| CCOC(=O)c1c(C)oc2nc(C)nc(NCCCN(CC)c3cccc(C)c3)c12 | 812 |
| O=C(CN1CCN(C(=O)Nc2ccc(Br)cc2)CC1=O)NC1CCCCCC1 | 786 |
| O=C(NCCc1csc(C2CCCN(C(=O)C3(c4ccccc4)CC3)C2)n1)C1CC1 (configuration not stated) | 762 |

— the METLIN SMRT retention time set (Domingo-Almenara et al. 2019)
